For four molecules, MIC results are on record in DBAASP.

≈ marks a conversion by molar mass, not a printed value. Where “and” joins values, the source holds several entries; their conditions need not be identical. Equal values may be shown once.

Some test systems named below: Acinetobacter baumannii; Aspergillus flavus; Bacillus megaterium; Bacillus subtilis JC443; Escherichia coli D21; Escherichia coli JC113; Escherichia coli ML-35p; Escherichia coli; Klebsiella pneumoniae; Listeria ivanovii; Saccharomyces cerevisiae; Staphylococcus aureus; Salmonella typhimurium.
Holding throughout (assay): ≥ marks a high value that may be exact or a test limit, other limits are often not marked, values filed in µg/mL are converted to µM
The subject of experiment [1] is Acinetobacter baumannii ATCC 19606.
The subject of experiment [2] is Candida albicans ATCC 90028.
The subject of experiment [3] is Candida parapsilosis ATCC 22019.
The subject of experiment [4] is Enterococcus faecalis ATCC 29212.
In experiment [5] the test system is Escherichia coli ATCC 35218.
Experiment [6] relates to Klebsiella pneumoniae ATCC 700603.
Experiment [7] concerns Pseudomonas aeruginosa ATCC 27853.
In experiment [8] the test system is Pseudomonas aeruginosa ATCC 9027.
The test system of experiment [9] is Pseudomonas aeruginosa JC115.
Experiment [10] relates to Staphylococcus aureus ATCC 43300.
In experiment [11] the test system is Staphylococcus aureus ATCC BAA-44.
In experiment [12] the test system is Staphylococcus aureus JC114.
In experiment [13] the test system is Staphylococcus aureus USA 100.
In experiment [14] the test system is Staphylococcus aureus USA 300.
The test system of experiment [15] is Streptococcus pyogenes ATCC 19615.
The subject of experiment [16] is Escherichia coli HP101BA 7601c.
Experiment [17] relates to Klebsiella pneumoniae PTCC 1388.
Experiment [18] concerns Staphylococcus aureus PTCC 1431.
Experiment [19] relates to Streptococcus agalactiae PTCC 1365.
Experiment [20] deals with Streptococcus dysgalactiae PTCC 1074.
Experiment [21] deals with Bordetella bronchiseptica CUN 11844-99.
The subject of experiment [22] is Escherichia coli ATCC 25922.
In experiment [23] the test system is Pseudomonas aeruginosa CUN 4158-02.
The subject of experiment [24] is Staphylococcus aureus ATCC 25923.
For experiment [25], the system named is Staphylococcus aureus CUN 3792-99.
Experiment [26] has as its system Stenotrophomonas maltophilia CUN 3998-00.
The subject of experiment [27] is Aeromonas salmonicida NCIMB 1102.
Experiment [28] has as its system Bacillus subtilis IAM 1026.
The subject of experiment [29] is Escherichia coli JCM 1649.
Experiment [30] concerns Photobacterium damselae subsp. piscicida Sp 9587.
The test system of experiment [31] is Shewanella putrefaciens IAM 1509.
Experiment [32] has as its system Staphylococcus aureus IAM 1011.
Experiment [33] has as its system Vibrio anguillarum NCIMB 829.
The subject of experiment [34] is Vibrio parahaemolyticus Vp+1.

Take `CC[C@H](C)[C@H](NC(=O)[C@H](CCCN=C(N)N)NC(=O)[C@H](CO)NC(=O)[C@H](CC(C)C)NC(=O)[C@H](Cc1ccccc1)NC(=O)[C@H](Cc1ccccc1)NC(=O)[C@@H](N)Cc1ccccc1)C(=O)N[C@@H](Cc1ccccc1)C(N)=O` [FFFLSRIF]: the minimum inhibitory concentration (MIC) was above 100 µM in experiment [1]; at least 100 µM against Acinetobacter baumannii; at least 200 µM against Aspergillus flavus; 3 µM (≈ 3.23 µg/mL) against Bacillus megaterium; at least 149 µM with Bacillus subtilis JC443; at least 100 µM in [2]. In addition, the MIC is at least 50 µM in experiment [3]; 50 µM and 100 µM in experiment [4]; at least 200 µM in experiment [5]; at least 100 µM in the experiment with Escherichia coli D21; at least 116 µM in the experiment on Escherichia coli JC113; 30 µM (≈ 32.3 µg/mL) with Escherichia coli ML-35p. Besides, the minimal inhibitory concentration (MIC) against Escherichia coli is above 100 µM; in [6] it was above 100 µM; against Klebsiella pneumoniae, above 100 µM; against Listeria ivanovii, at least 50 µM; in [7], > 200 µM and 100 µM; in experiment [8] it was above 100 µM. Besides, the MIC in experiment [9] is at least 88 µM; against Saccharomyces cerevisiae, 12.5 µM (≈ 13.4 µg/mL); in [10], above 100 µM; in experiment [11] it was 25 µM (≈ 26.9 µg/mL); in experiment [12], at least 121 µM; in experiment [13] it was at least 50 µM. Moreover, the MIC in experiment [14] was at least 50 µM; with Staphylococcus aureus, 100 µM (≈ 108 µg/mL); in experiment [15], 25 µM (≈ 26.9 µg/mL).

Take `CC(C)C[C@H](NC(=O)[C@H](C)NC(=O)[C@H](C)NC(=O)[C@H](CC(N)=O)NC(=O)[C@H](Cc1ccccc1)NC(=O)[C@H](CC(C)C)NC(=O)[C@@H]1CCCN1C(=O)[C@H](CCCCN)NC(=O)[C@H](CC(C)C)NC(=O)[C@@H](N)Cc1ccccc1)C(=O)N[C@@H](CCCCN)C(=O)N[C@@H](CC(C)C)C(=O)N[C@@H](CC(C)C)C(=O)N1CCC[C@H]1C(N)=O` [FLKPLFNAALKLLP]: the MIC came out at 15.3 µM (≈ 24.2 µg/mL) in experiment [16]; 19.7 µM (≈ 31.2 µg/mL) in experiment [17]; 22.2 µM (≈ 35.2 µg/mL) in experiment [18]; 15.6 µM (≈ 24.7 µg/mL) in [19]; 20.9 µM (≈ 33.2 µg/mL) in experiment [20].

Turning to `NCCCC[C@H](NC(=O)CN)C(=O)N[C@@H](CCCCN)C(=O)N[C@@H](Cc1ccc(O)cc1)C(=O)N[C@@H](CCCN=C(N)N)C(=O)N[C@@H](CCCN=C(N)N)C(=O)N[C@@H](Cc1ccccc1)C(=O)N[C@@H](CCCN=C(N)N)C(=O)N[C@@H](Cc1c[nH]c2ccccc12)C(=O)N[C@@H](CCCCN)C(=O)N[C@@H](Cc1ccccc1)C(=O)N[C@@H](CCCN=C(N)N)C(=O)N[C@@H](CCCCN)C(=O)NCC(=O)N[C@@H](CCCN=C(N)N)C(=O)N[C@@H](Cc1ccccc1)C(=O)N[C@@H](Cc1c[nH]c2ccccc12)C(=O)N[C@@H](Cc1ccccc1)C(=O)N[C@@H](Cc1c[nH]c2ccccc12)C(=O)NCC(N)=O` [GKKYRRFRWKFRKGRFWFWG], the minimal inhibitory concentration (MIC) was 5.73 µM (≈ 16 µg/mL) in [1]; 1.43 µM (≈ 4 µg/mL) in experiment [21]; 5.73 µM (≈ 16 µg/mL) in experiment [22]; 5.73 µM (≈ 16 µg/mL) in experiment [7]; 11.5 µM (≈ 32 µg/mL) in [23]; 5.73 µM (≈ 16 µg/mL) in experiment [24]. Besides, the MIC is 5.73 µM (≈ 16 µg/mL) in experiment [10], 5.73 µM (≈ 16 µg/mL) in [25] and 22.9 µM (≈ 64 µg/mL) in experiment [26].

As to `CC[C@H](C)[C@H](NC(=O)[C@H](CCCCN)NC(=O)CNC(=O)[C@H](CC(C)C)NC(=O)[C@@H](NC(=O)[C@H](CCCCN)NC(=O)[C@H](CCCNC(=N)N)NC(=O)[C@H](Cc1c[nH]c2ccccc12)NC(=O)[C@@H](N)CC(N)=O)[C@@H](C)CC)C(=O)N[C@@H](C)C(=O)N[C@@H](CCCCN)C(=O)N[C@H](C(=O)N[C@@H](C)C(=O)N[C@@H](C)C(=O)NCC(=O)N[C@@H](CC(C)C)C(=O)N[C@@H](CC(C)C)C(=O)NCC(=O)N[C@@H](CO)C(=O)N[C@@H](CCSC)C(=O)N[C@@H](CC(C)C)C(=O)N[C@@H](C)C(=O)NCC(=O)N[C@@H](Cc1ccc(O)cc1)C(=O)N[C@@H](CCC(N)=O)C(=O)N[C@H](C(=O)O)C(C)C)C(C)C` [NWRKILGKIAKVAAGLLGSMLAGYQV], the MIC was 9.06 µM (≈ 25 µg/mL) in experiment [27]; 2.27 µM (≈ 6.25 µg/mL) in [28]; 4.53 µM (≈ 12.5 µg/mL) in [29]; 2.27 µM (≈ 6.25 µg/mL) in experiment [30]; 4.53 µM (≈ 12.5 µg/mL) against Salmonella typhimurium; 2.27 µM (≈ 6.25 µg/mL) in [31]. Further, the MIC is 4.53 µM (≈ 12.5 µg/mL) in [32], 4.35 µM (≈ 12 µg/mL) in experiment [33] and 9.06 µM (≈ 25 µg/mL) in [34].

In general, MIC refers to the smallest concentration in the dilution series that meets the test's criterion for growth inhibition. A low value points to a more susceptible organism.
